Data published in ChEMBL document CHEMBL1201862, “PubChem BioAssay data set” (2004).
Activity calls are given as the source filed them.

How the values were obtained:
[1] = target: T1, Sentrin-specific protease 1 (Homo sapiens, UniProt Q9P0U3); experiment: SENP1 catalytic domain blockers, concentration series – biochemical, kinetic FRET, dose response (AID 651697); format: functional; details: read-out: IC50_Mean
[2] = target: T1, Sentrin-specific protease 1; experiment: Dose response confirmation of small molecule inhibitors of the catalytic domain of the SUMO protease, SENP1 in a FRET assay.; format: functional; details: read-out: IC50_Mean
[3] = target: T2, RNA-binding protein pos-1 (Caenorhabditis elegans, UniProt G5EF15); experiment: disruptors of C. elegans POS-1 RNA interaction – biochemical, fluorescence polarization, dose response (AID 1964);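 note: purified POS-1 fused to maltose binding protein made in E. coli; potency of compounds blocking POS-1 binding to fluorescent RNA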
T2 sequence (G5EF15 whole entry): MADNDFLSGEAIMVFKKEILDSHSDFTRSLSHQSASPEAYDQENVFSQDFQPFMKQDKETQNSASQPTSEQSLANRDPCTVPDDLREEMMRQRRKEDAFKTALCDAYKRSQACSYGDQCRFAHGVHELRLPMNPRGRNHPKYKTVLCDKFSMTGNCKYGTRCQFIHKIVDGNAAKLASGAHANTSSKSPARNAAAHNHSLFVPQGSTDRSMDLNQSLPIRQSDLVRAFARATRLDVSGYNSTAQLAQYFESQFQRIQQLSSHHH

[4] = target: T3, Zinc finger protein mex-5 (Caenorhabditis elegans, UniProt Q9XUB2); experiment: potency of MEX-5 RNA-binding blockers – biochemical, C. elegans, fluorescence polarization, dose response (AID 1960)
T3 sequence (Q9XUB2 whole entry): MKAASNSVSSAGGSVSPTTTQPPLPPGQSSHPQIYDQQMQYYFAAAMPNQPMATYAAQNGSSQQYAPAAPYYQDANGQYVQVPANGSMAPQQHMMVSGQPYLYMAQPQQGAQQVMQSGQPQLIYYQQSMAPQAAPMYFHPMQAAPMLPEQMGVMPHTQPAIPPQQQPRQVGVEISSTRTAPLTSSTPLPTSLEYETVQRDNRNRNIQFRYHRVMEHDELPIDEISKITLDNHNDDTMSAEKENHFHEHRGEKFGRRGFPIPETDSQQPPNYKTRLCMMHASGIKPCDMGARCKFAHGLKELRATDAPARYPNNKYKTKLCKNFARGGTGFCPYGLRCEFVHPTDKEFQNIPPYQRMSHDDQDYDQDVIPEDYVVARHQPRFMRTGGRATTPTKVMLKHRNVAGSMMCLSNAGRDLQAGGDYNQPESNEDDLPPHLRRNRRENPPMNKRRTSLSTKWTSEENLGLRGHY

[5] = viability loss in HEK293T cells – cell-based, cherry-picks, cytotoxicity control for HIV Vif inhibitor project, dose response (AID 652208); format: functional
[6] = target: G-protein coupled receptor 55 (Homo sapiens, UniProt Q9Y2T6); experiment: inhibition of LPI-stimulated GPR55 beta-arrestin translocation – imaging, U2OS, beta-arrestin-GFP, LPI agonist, primary screen (AID 2013); format: functional;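 note: antagonist potency measured as reduced agonist-driven arrestin aggregation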
[7] = target: Matrix metalloproteinase-14 (Homo sapiens, UniProt P50281); experiment: Dose Response confirmation of uHTS hits for a small molecule inhibitors of MT1-MMP activation in a fluorescence assay set 1.; format: functional
[8] = viability of HT1080 fibrosarcoma cells – cell-based, ATPLite luminescence, set 1, cytotoxicity control for MT1-MMP activation inhibitor project, dose response (AID 652252); format: functional
Caspase-6 = target: T4, Caspase-6 (Homo sapiens, UniProt P55212); experiment: inhibition of CASP6 peptide cleavage – biochemical, VEID-R110 fluorescence, cherry-pick, dose response (AID 720632)
T4 sequence (P55212 whole entry): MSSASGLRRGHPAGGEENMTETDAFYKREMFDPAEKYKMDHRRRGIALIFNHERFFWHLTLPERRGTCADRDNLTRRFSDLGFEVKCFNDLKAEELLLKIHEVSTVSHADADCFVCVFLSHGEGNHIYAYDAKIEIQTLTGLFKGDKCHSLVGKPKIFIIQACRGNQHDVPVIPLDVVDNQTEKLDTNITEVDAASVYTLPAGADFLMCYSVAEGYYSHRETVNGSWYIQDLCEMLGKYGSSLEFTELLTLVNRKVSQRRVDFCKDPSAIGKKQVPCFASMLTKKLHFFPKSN

[9] = inhibition of ARNT PAS-B/TACC3 complex formation – biochemical, AlphaScreen, cherry-picked samples, confirmation (AID 651703); format: functional, Homo sapiens;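 note: His-tagged ARNT PAS-B domain paired with GST-TACC3 E629A dimer coactivator fragment; potency of inhibitors that break up the complex and lower AlphaScreen signal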
[10] = blockade of melanocortin 4 receptor signaling – cell-based, plate reader, cherry pick, counter-screen for LGR2 antagonist project, dose response (AID 743444); format: functional;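 note: transfected HEK 293 cells stimulated with alpha-MSH peptide; potency of inhibitors of the alpha-MSH evoked signal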
Streptococcus = experiment: GAS UMAA2166 growth inhibition – luminescence, BacTiterGlo, counter-screen for streptokinase expression inhibitor project, dose response (AID 1915); format: functional, organism-based;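 note: potency for reduction of bacterial viability or growth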
[11] = toxicity toward HepG2 liver cells – cell-based, plate reader, cherry-pick, antagonist series, cytotoxicity control, dose response (AID 743416); format: functional
cells = format: functional, cell-based
[12] = system: Streptococcus sp. 'group A'; experiment: Streptococcus pyogenes SK(-)GAS viability under kanamycin – luminescence, BacTiterGlo, confirmation, counter-screen for streptokinase expression inhibitor project, dose response (AID 1900); format: functional, organism-based
HEK293 = experiment: EBV LMP1 TES2 canonical NF-kB signalling blockers – cell-based, HEK293, luciferase, cherry-pick, dose response (AID 588343); format: functional; details: Homo sapiens
[13] = target: T5, Nuclear receptor subfamily 0 group B member 1 (Homo sapiens, UniProt P51843); format: functional, cell-based;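 note: HEK293T cells transfected with SF-1 and DAX-1 plus StAR promoter luciferase reporter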
T5 sequence (P51843 whole entry): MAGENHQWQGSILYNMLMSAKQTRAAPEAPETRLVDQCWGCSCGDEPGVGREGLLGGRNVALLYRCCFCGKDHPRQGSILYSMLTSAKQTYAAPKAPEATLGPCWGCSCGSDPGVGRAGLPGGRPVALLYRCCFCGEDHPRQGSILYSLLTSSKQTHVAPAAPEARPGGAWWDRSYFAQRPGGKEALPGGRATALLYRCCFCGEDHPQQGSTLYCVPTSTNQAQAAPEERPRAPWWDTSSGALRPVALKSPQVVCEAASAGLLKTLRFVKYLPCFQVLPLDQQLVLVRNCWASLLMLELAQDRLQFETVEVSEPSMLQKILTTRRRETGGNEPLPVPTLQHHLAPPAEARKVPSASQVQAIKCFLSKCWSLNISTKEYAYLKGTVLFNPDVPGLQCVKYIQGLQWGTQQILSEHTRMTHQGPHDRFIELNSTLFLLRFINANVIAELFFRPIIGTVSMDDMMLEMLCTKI

[14] = target: Latent membrane protein 1 (Human herpesvirus 4 (strain B95-8), UniProt P03230); experiment: LMP1 TES1 pathway selectivity over dsRED control – imaging, HEK293T, dual-color eGFP/dsRED, cherry-picks, selectivity assay for LMP1 NF-kB inhibitor project, dose response (AID 588398); format: functional, cell-based
[15] = blockers of bursicon-stimulated LGR2 cAMP reporter – cell-based, HEK293, CRE-luciferase reporter, cherry pick, set 2, dose response (AID 743343); format: functional;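 note: transfected cells were stimulated with diluted bursicon conditioned medium after compound addition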
[16] = viability loss in HEK293 cells – cell-based, plate reader, cherry-picked samples, cytotoxicity control, dose response (AID 743446); format: functional
[17] = A549 cell cytotoxicity, dose response, cytotoxicity control, plate reader, cherry-pick, antagonist series (AID 743412); format: functional, cell-based
[18] = target: Mitochondrial peptide methionine sulfoxide reductase (Bos taurus, UniProt P54149); format: functional;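 note: absorbance read-out, biochemical high-throughput dose-response screen for MsrA inhibitors, confirmatory; recombinant bovine MsrA coupled to E. coli TrxB with NADPH and selenocystamine; potency is for inhibitors of MsrA activity on DMSO substrate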
A549 = experiment: viability loss in A549 cells – cell-based, plate reader, cherry-pick samples, cytotoxicity control, dose response (AID 687028); format: functional; details: Homo sapiens
INS1 = experiment: INS-1E survival protection against cytokine death – cell-based, luminescence, retest, dose response (AID 449756); format: functional; details: Rattus norvegicus;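 note: cell death triggered by IL-1 beta plus TNF-alpha plus IFN-gamma mixture; protective hits raise ATP signal compared with cytokine alone wells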
[19] = reduction of Shn3 3'UTR-driven luciferase in osteoblasts – cell-based, Clone20 osteoblasts, firefly luciferase, cherry-picked, dose response (AID 624132); format: functional;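 note: firefly luciferase luminescence from reporter carrying the Shn3 3'UTR in osteoblasts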
[20] = loss of viability in HepG2 cells – cell-based, CellTiter-Glo, cherry-picked, cytotoxicity control for Shn3 inhibitor project, dose response (AID 624134); format: functional
[21] = non-specific 3'UTR reporter inhibition in Clone20-Shn3RL – cell-based, Renilla luciferase, cherry-picked, counter-screen for Shn3 inhibitor project, dose response (AID 624133); format: functional
[22] = target: COUP transcription factor 2 (Homo sapiens, UniProt P24468); experiment: Luminescence-based cell-based high throughput dose response assay to identify inhibitors of COUP-TFII (NR2F2).; format: functional;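 note: HEK293 cells transiently cotransfected with COUP-TFII expression vector and reporter; luciferase reporter luminescence driven by COUP-TFII from the pX2-168 reporter plasmid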
Protein Wnt-3a = Protein Wnt-3a (Mus musculus, UniProt P27467); experiment: antagonism of Wnt3a pathway luciferase reporter – Wnt-LIGHT cells, luminescence, selectivity assay for Gli-SUFU antagonist project, dose response (AID 651570); format: functional; details: read-out: IC50_Mean;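 note: Wnt-LIGHT reporter cells stimulated with conditioned medium from Wnt3a-producing cells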
Beta-lactamase [23] = target: T6, Beta-lactamase (Pseudomonas aeruginosa, UniProt Q79MP6); experiment: inhibition of IMP-1 beta-lactamase activity – biochemical, epi-absorbance, selectivity assay for VIM-2 inhibitor project, dose response (AID 1920)
[24] = target: Protein-tyrosine kinase 2-beta (Homo sapiens, UniProt Q14289);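 note: potency of inhibitors of PYK2 kinase phosphorylation of poly-GT substrate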
Beta-lactamase [25] = target: Beta-lactamase (Salmonella choleraesuis (strain SC-B67), UniProt Q5J463); experiment: Epi-absorbance-based counterscreen for selective VIM-2 inhibitors: dose response biochemical high throughput screening assay to identify inhibitors of TEM-1 serine-beta-lactamase.
Beta-lactamase [26] = target: T6, Beta-lactamase; experiment: […] counterscreen for selective VIM-2 inhibitors: dose response biochemical high throughput screening assay to identify inhibitors of IMP-1 metallo-beta-lactamase.

T1 sequence (Q9P0U3 whole entry, the tested form may be a part): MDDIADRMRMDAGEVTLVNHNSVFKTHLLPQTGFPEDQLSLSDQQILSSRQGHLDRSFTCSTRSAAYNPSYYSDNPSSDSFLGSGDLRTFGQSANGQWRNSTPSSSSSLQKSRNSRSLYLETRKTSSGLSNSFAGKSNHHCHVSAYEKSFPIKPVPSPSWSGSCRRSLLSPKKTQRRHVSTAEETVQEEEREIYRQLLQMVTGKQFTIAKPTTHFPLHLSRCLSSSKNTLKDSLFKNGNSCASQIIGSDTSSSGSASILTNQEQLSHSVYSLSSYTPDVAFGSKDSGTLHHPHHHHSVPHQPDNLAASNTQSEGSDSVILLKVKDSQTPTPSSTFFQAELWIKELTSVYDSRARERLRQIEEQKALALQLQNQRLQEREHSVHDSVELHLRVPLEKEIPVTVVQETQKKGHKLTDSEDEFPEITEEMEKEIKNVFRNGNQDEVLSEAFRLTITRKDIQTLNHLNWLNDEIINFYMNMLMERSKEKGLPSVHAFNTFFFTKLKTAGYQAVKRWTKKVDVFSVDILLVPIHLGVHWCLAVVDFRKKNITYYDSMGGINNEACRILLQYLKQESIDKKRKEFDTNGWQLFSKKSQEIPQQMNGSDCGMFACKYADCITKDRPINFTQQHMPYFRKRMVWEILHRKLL
T6 sequence (Q79MP6 whole entry): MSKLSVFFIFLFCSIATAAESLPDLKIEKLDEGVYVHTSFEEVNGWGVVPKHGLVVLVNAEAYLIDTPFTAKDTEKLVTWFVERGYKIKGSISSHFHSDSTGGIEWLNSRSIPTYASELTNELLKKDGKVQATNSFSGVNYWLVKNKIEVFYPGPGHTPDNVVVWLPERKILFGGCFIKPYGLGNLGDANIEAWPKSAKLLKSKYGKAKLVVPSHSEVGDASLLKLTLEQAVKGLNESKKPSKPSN
Sequence of Mitochondrial peptide methionine sulfoxide reductase (P54149 whole entry): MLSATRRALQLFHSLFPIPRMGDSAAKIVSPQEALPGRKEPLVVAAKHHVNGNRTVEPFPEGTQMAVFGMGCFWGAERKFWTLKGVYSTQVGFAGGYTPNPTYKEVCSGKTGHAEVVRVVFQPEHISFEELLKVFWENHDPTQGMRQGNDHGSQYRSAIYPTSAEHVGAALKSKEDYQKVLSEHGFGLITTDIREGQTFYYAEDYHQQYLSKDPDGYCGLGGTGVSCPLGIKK
Sequence of COUP transcription factor 2 (P24468 whole entry): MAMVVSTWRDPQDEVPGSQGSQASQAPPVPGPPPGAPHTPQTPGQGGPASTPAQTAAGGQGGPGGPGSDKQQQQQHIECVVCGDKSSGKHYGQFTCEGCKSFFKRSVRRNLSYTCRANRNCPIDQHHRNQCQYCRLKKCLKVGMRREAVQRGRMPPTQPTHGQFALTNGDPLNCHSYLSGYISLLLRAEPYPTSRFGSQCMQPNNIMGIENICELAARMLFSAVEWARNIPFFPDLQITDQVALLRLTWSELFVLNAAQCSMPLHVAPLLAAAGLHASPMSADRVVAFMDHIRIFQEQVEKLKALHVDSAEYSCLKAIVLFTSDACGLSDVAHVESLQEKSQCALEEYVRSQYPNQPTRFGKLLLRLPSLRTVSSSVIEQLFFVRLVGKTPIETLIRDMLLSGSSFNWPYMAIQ
Sequence of G-protein coupled receptor 55 (Q9Y2T6 whole entry): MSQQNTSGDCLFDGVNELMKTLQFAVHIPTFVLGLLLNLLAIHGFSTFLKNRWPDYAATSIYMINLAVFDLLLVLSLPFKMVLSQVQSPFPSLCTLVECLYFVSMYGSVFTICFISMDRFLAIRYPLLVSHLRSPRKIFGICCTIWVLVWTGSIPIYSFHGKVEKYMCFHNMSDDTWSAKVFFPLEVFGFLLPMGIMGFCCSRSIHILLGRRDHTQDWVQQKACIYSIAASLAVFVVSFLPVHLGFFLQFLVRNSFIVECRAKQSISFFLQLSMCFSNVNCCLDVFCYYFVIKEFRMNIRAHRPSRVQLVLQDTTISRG
Sequence of Beta-lactamase (Salmonella choleraesuis (strain SC-B67), UniProt Q5J463) (Q5J463 whole entry): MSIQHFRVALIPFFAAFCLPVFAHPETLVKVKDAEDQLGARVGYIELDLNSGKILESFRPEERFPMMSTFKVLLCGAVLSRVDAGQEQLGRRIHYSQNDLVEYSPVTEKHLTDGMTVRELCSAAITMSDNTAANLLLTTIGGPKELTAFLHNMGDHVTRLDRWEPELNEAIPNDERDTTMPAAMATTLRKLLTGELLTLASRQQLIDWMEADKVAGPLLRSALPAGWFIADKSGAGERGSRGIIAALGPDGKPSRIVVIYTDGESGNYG
Sequence of Protein-tyrosine kinase 2-beta (Q14289 whole entry): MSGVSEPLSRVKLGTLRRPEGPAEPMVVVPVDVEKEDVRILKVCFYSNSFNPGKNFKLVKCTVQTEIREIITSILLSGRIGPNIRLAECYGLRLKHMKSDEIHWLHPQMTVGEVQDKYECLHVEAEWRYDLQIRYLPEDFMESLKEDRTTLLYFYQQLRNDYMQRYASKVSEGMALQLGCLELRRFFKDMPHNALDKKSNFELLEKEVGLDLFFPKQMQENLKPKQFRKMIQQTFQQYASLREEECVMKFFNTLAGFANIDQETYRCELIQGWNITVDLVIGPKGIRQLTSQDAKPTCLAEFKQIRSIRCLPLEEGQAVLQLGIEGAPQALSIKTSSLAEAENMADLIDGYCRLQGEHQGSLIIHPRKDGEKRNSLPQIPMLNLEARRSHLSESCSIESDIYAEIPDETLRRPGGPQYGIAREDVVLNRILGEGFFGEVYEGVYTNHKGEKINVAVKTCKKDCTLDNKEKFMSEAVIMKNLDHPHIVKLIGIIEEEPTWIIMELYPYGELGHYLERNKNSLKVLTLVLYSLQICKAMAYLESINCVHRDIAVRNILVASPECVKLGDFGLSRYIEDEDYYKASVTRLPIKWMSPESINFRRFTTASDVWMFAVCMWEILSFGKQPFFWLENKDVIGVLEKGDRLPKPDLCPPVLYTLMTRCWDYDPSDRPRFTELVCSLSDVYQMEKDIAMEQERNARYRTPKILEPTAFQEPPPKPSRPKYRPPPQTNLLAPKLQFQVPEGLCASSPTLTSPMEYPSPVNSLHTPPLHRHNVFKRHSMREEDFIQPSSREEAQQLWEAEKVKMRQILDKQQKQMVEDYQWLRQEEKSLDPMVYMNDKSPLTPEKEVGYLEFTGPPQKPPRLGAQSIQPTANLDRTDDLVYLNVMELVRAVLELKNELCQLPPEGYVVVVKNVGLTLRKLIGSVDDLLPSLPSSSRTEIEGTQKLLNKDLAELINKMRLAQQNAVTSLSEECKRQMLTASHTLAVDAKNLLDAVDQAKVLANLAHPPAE
Sequence of Latent membrane protein 1 (P03230 whole entry): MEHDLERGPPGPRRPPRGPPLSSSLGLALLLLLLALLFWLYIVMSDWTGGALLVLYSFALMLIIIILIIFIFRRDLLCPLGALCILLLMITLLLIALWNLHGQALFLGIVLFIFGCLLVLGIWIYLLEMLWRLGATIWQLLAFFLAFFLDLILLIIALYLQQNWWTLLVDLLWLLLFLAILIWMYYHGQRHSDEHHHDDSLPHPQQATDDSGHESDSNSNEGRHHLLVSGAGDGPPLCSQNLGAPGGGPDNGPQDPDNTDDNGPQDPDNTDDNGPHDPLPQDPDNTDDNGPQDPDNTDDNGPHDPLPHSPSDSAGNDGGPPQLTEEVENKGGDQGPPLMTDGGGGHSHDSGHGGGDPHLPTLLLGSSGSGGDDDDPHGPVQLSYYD
Sequence of Protein Wnt-3a (P27467 whole entry): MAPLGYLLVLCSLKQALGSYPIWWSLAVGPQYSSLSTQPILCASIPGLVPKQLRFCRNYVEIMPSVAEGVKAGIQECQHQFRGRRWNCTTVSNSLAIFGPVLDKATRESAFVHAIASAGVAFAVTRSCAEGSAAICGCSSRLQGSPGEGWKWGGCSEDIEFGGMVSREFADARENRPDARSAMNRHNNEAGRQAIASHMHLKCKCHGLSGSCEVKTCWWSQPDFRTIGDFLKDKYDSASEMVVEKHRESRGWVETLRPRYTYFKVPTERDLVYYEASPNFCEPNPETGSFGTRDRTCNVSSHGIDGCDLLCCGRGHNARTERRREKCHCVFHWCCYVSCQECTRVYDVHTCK

## Cc1cccc(-c2c3c(=O)n(C)c(=O)n(C)c3c3cccnn23)c1
[1]
  IC50: 27 µM (inactive)
[2]
  IC50: 11.3 µM (active)
[3]
  EC50: 83.8 µM (active)
[4]
  EC50: 87.6 µM (active)

## CCCN1C(=O)/C(=C\C=C2\N(CC)c3ccccc3C2(C)C)SC1=S
[5]
  AC50: > 52 µM (inactive)
[6]
  IC50: 0.824 µM (active)

## O=C(CF)NC(Nc1cccc2cccnc12)C(Cl)(Cl)Cl (stereo not drawn)
[7]
  IC50: 2.03 µM (active)
[8]
  IC50: > 10 µM (active)

## Cc1ccc2[nH]c3c(c2c1)CCCC3NCCO (stereo not drawn)
Caspase-6
  AC50: 22.2 µM (active)
[9]
  AC50: 135 µM (active)

## COc1ccc(-c2cc3nc4n(c(=O)c3s2)CCC4)cc1
[10]
  AC50: 2.65 µM (active)
Streptococcus
  EC50: 2.48 µM (active)
[11]
  AC50: > 52 µM (inactive)
cells
  IC50: > 67.5 µM (inactive)
[12]
  EC50: 0.706 µM (active)
HEK293
  AC50: 1.48 µM (active)
[13]
  IC50: > 0.278 µM (active)
[14]
  AC50: 28 µM (active)
[15]
  AC50: 2.53 µM (active)
[16]
  AC50: 36.4 µM (active)
[17]
  AC50: > 52 µM (inactive)

## COc1cc(C2C(C(=O)c3sc(C)nc3C)=C(O)C(=O)N2CCN(C)C)cc(OC)c1OC (stereo not drawn)
[18]
  IC50: 155 µM (inactive)

## Cc1cccc(OCC(=O)NNC(=O)C2CCCCC2C(=O)O)c1 (stereo not drawn)
A549
  AC50: 26.4 µM (active)

## COc1ccc(CCNc2ncnc3c2oc2ccccc23)cc1OC
INS1
  AC50: 1.78 µM (active)
[19]
  AC50: 0.524 µM (active)
[20]
  AC50: 3.79 µM (active)
[21]
  AC50: 1.89 µM (active)
[22]
  IC50: 5.03 µM (active)
Protein Wnt-3a
  IC50: 1.07 µM (active)

## O=P(O)(O)c1ccccc1OCc1ccccc1
Beta-lactamase [23]
  IC50: > 59.6 µM (inactive)
[24]
  IC50: 2.21 µM (active)
Beta-lactamase [25]
  IC50: > 59.6 µM (inactive)
Beta-lactamase [26]
  IC50: > 59.6 µM (inactive)
